The source made the active and inactive calls. No cut-off for these calls is given here.
What was measured:
[1] = test system: PC-12; test: Anti-ferroptosis activity against RSL3-induced ferroptosis in rat PC-12 cells assessed as increase in GSH level at 10 uM preincubated with compound for 24 hrs followed by RSL3 stimulation and measured after 24 hrs by […] method; format: functional, cell-based; settings: time 48.0 hrs
[2] = test system: PC-12; test: Upregulation of ferritin level in RSL3-induced rat PC-12 cells at 10 uM preincubated with compound for 24 hrs followed by RSL3 stimulation and measured after 24 hrs by Western blotting analysis; format: functional, cell-based; settings: time 48.0 hrs
[3] = test system: PC-12; test: Anti-ferroptosis activity against RSL3-induced ferroptosis in rat PC-12 cells assessed as decrease in lipid peroxidation at 10 uM by BODIPY-C11 581/591 staining based fluorescence microscopic analysis; format: functional, cell-based
[4] = test system: PC-12; test: Effect on SLC7A11 expression in RSL3-induced rat PC-12 cells at 10 uM preincubated with compound for 24 hrs followed by RSL3 stimulation and measured after 24 hrs by Western blotting analysis; format: functional, cell-based; settings: time 48.0 hrs
[5] = test system: PC-12; test: Neuroprotective activity against RSL3-induced ferroptosis in rat PC-12 cells assessed as increase in survival rate at 10 uM preincubated with RSL3 stimulation followed by compound addition and measured after 24 hrs by CCK-8 assay (reference value: 54%); format: functional
[6] = test system: PC-12; test: Downregulation of NCOA4 level in RSL3-induced rat PC-12 cells at 10 uM preincubated with compound for 24 hrs followed by RSL3 stimulation and measured after 24 hrs by Western blotting analysis; format: functional, cell-based; settings: time 48.0 hrs
[7] = test system: PC-12; test: Neuroprotective activity against RSL3-induced ferroptosis in rat PC-12 cells assessed as increase in survival rate at 10 uM preincubated with RSL3 stimulation followed by compound addition and measured after 24 hrs by CCK-8 assay; format: functional, cell-based
[8] = test system: PC-12; test: Upregulation of SLC7A11 expression in RSL3-induced rat PC-12 cells at 10 uM preincubated with compound for 24 hrs followed by RSL3 stimulation and measured after 24 hrs by Western blotting analysis; format: functional, cell-based; settings: time 48.0 hrs

Compound | Activity [1] | Activity [2] | Activity [3] | Activity [4] | Activity [5] | Activity [6] | Activity [7] | Activity [8]
C/C(=C\Cc1ccc2c(c1)NC(=O)C2)C(=O)O | Active | Active | Active | inactive | 84% | Active | – | –
OCc1c[nH]c2ccccc12 | – | – | – | – | – | – | Active | –
C/C=C(C)/C=C(\C)[C@H]1C(C)=C[C@]2(C)C[C@H](C)CC[C@H]2[C@@H]1C(=O)[C@H]1C(=O)NC(=O)[C@@H]1Cc1c[nH]c2ccccc12 | – | Active | Active | – | – | Active | Active | Active
CC(=O)NCCc1ccc(O)cc1 | – | – | – | – | 83% | – | – | –
CC(C)=CCc1ccc2c(c1)NC(=O)C2 | – | – | – | – | 77% | – | – | –
